Experiments:
[1] = test system: lymph node cells from FVIII-DR2+ mice; test: Recall responses of lymph node cells from FVIII-DR2+ mice primed with rhFVIII/CFA to the peptide panel; assay type: cell-based; conditions: FVIII-DR2+ animals immunised with factor VIII in adjuvant; FIG. 3
Source text: HLA-DR2 transgenic mice were crossed with factor VIII deficient mice to create a model of haemophilia expressing the human HLA class II MHC molecule.
These FVIII-DR2+ animals were immunised with factor VIII in adjuvant. Draining lymph nodes were isolated and tested for their response to the peptide panel.
The same method was followed as for (i), except the mice were FVIII-deficient, HLA-DR2+ and murine MHC class II null.

T-cell hybridomas [2] = test: FVIII peptide specificity of T cell hybridomas generated from FVIII-/- HLA-DR2+ mice (IL-2 production); assay type: cell-based; conditions: of 19 hybridomas specific for factor VIII; factor VIII deficient HLA-DR2 mice
Source text: Factor VIII deficient mice expressing HLA-DR2 were immunised with factor VIII in adjuvant. Spleen cells from the immunised mice were restimulated in vitro with factor VIII and the resulting lymphoblasts were fused with BW5147, as described above. T-cell hybridomas were screened for their response to the 12 predicted peptides. Yet again, the majority of hybridomas responded to peptides DNIMV (SEQ ID NO:72) and PRCLT (SEQ ID NO:70). Of 19 hybridomas specific for factor VIII, 10 responded to DNIMV (SEQ ID NO:72), 6 to PRCLT (SEQ ID NO:70), 1 to PPIIA (SEQ ID NO:65), 1 to SLYIS (SEQ ID NO:64) and 1 to DTLLI (SEQ ID NO:69).
(§1) HLA-DR2+ murine MHC class II null mice were immunised as above. On day 10 draining lymph nodes were removed and lymphocytes cultured at 2.5×10^6 cells/ml, 1 ml/well in 24 well plates in the presence of 20 μg/ml rhFVIII for 3 days. Following this stimulation, lymphocytes were recovered, washed and fused with TCRα^−β^− BW fusion partner cells at a ratio of 4 BW cells to 1 lymphocyte, using polyethylene glycol as described by Nelson et al (1980) PNAS 77(5):2866. Fused cells were carefully washed and then plated out in flat bottomed 96 well plates for 2 days before the addition of HAT medium to select for T cell hybridomas. Cells were monitored for growth and approximately 10 days after fusions were performed, individual clones were selected and transferred to 24 well plates in HAT medium. Clones were maintained in HAT medium for at least 2 weeks before being weaned into HT medium and then complete medium. Clones were tested for antigenic specificity by culturing 100 μl of hybridoma cells with 5×10^4 Mgar cells in the presence and absence of 20 μg/ml rhFVIII overnight. Supernatants were then collected and assessed for IL-2 production by ELISA, with clones producing IL-2 in response to rhFVIII being considered positive for FVIII-specificity. To investigate the repertoire of predicted FVIII peptides FVIII-specific clones were again tested for IL-2 production, following overnight incubation with 20 μg/ml of each of the 12 peptides.
The same method was followed as for (ii), except the mice were FVIII-deficient and HLA-DR2+.

[3] = test system: HLA-DR2 restricted cells from factor VIII immunised mice; test: Recall responses (proliferation) of lymph node cells from FVIII+DR2+ mice primed with rhFVIII/CFA to FVIII peptides; assay type: cell-based; conditions: FVIII+DR2+ mice immunised with human factor VIII in adjuvant; LNC restimulated in vitro with peptide; FIG. 1
T-cell hybridomas [4] = test: FVIII peptide specificity of T cell hybridomas generated from DR2+ mice (IL-2 production); assay type: cell-based; conditions: for Number of hybridomas responding to peptide: of the 27 hybridomas screened, HLA-DR2 mice, 20 μg/ml peptide, IL-2
Source text: HLA-DR2 mice were first immunised with factor VIII in adjuvant. Spleen cells from immune mice were restimulated in vitro with factor VIII and the resulting lymphoblasts were fused with the BW5147 thymoma using polyethylene glycol.
T-cell hybridomas were selected in HAT medium and the hybridomas cloned and tested for their response to factor VIII. The hybridomas were then screened for their response to the 12 predicted peptides.
as §1

[5] = test system: fixed Mgar cells / FVIII-/- T cell hybridoma clones; test: Presentation by fresh or fixed Mgar cells to hybridoma clones (antigen processing-independent presentation, IL-2 ELISA); assay type: cell-based; conditions: 20 μg/ml, overnight, Mgar cells fresh or fixed with 1% paraformaldehyde, IL-2 by ELISA; FIG. 5
Procedure: In order to be an antigen processing-independent epitope, a peptide must be capable of binding to an MHC class I or II molecule without further antigen processing (i.e. trimming) and be presented to a T cell. In the present case, the capacity of peptides to be presented by fixed APC was investigated.
Mgar cells were either fresh or fixed with 1% paraformaldehyde. Clones were tested for antigenic specificity by culturing 100 μl of hybridoma cells with 5×10^4 Mgar cells in the presence and absence of 20 μg/ml rhFVIII or peptide epitopes overnight. Supernatants were then collected and assessed for IL-2 production by ELISA.

HLA-DR2 transgenic mice = test: Tolerisation of FVIII-specific responses in DR2+ mice by pre-treatment with peptide; assay type: in vivo; conditions: 3x i.p. 100 μg peptide prior to priming with rhFVIII/CFA, vs PBS, FIG. 6
Procedure: HLA-DR2 transgenic mice were treated with either of the two soluble peptides, or PBS as a control, prior to immunisation with factor VIII in adjuvant. Draining lymph nodes were isolated and the cells restimulated in vitro with factor VIII protein in order to assess the immune status of the mice.
HLA-DR2+ murine MHC class II null mice were treated 3 times with 100 μg of DNIMV (SEQ ID NO:72), PRCLT (SEQ ID NO:70) or PPIIA (SEQ ID NO:65) dissolved in PBS, or the equivalent volume of PBS alone. Peptides were administered intraperitoneally, with 3-4 days between each dose. Following the final administration, mice were primed with rhFVIII emulsified in complete Freunds adjuvant as for (i). 10 days later, draining lymph nodes were recovered and lymphocytes subsequently cultured in vitro with rhFVIII, or each of the tolerising peptides as well as control antigens, for 72 hours before the addition of tritiated thymidine as for (i).

Row | Sequence | Response of lymph node cells to peptide [1] | Number of hybridomas responding to peptide (T-cell hybridomas [2]) | Response of lymph node cells to peptide (LNC proliferation) [3] | Number of hybridomas responding to peptide (T-cell hybridomas [4]) | Presentation by live and fixed Mgar cells [5] | Immune response to factor VIII after peptide pre-treatment (LNC recall response) (HLA-DR2 transgenic mice) | Quality of hybridoma response to peptide (T-cell hybridomas [4]; HLA-DR2 mice hybridomas)
1 | GTLMVFFGNVDSSGI [FVIII first AA 2140] | weak response |  |  |  |  |  | 
2 | DTLLIIFKNQASRPY |  | 1 |  |  |  |  | 
3 | DNIMVTFRNQASRPY | responded well | 10 | respond strongly | 11 | presented by both live and fixed Mgar cells | substantial suppression of the immune response to factor VIII | 
4 | PPIIARYIRLHPTHY [FVIII first AA 2161] |  | 1 | responses | 3 |  |  | weaker and less specific
5 | RYLRIHPQSWVHQIA [FVIII first AA 2322] | significant response |  |  |  |  |  | 
6 | PRCLTRYYSSFVNME | responded well | 6 | responses | 3 | presented by both live and fixed Mgar cells | substantial suppression of the immune response to factor VIII | 
7 | SLYISQFIIMYSLDG [FVIII first AA 2114] |  | 1 |  |  |  |  | 
